Patent publication US10130616B2, “Securinine and norsecurinine analogue compounds for the treatment of myeloid disorders” (Case Western Reserve University, priority 2013, dated 2018)
Like-named read-outs stand apart in the source and are kept apart here.

Columns and labels:
HL-60 leukemic cells = assay: Nitroblue Tetrazolium (NBT) reduction assay, differentiation of HL-60 leukemic cells; type: cell-based, human
Text: In an aspect of the present disclosure, the compounds of the disclosure can be identified using a novel high-throughput screen that is biased to identify agents that have both a high potency and low toxicity in a myeloid disorder disease model, such as an animal or cell model. In some embodiments, the high-throughput screen measures the differentiation of HL-60 leukemic cells using a quantitative nitroblue tetrazolium (NBT) reduction assay. Screening HL-60 cells, human promyelocytic cells, is advantageous as they have been used extensively as a cell line to study myeloid differentiation. Though promyelocytic cells, HL-60 cells were derived from a patient with acute myeloblastic leukemia with maturation, FAB-M2.
This technique has also been widely exploited in HL-60 cells to analyze myelomonocytic differentiation.
The NBT screen works due to changes in the oxidoreductases during differentiation that lead to increases in rates of NBT reduction. NBT is reduced due to the production of superoxide that is catalyzed by an NADPH oxidase. […] NBT is reduced by superoxide from a soluble yellow compound to insoluble blue formazan granules whose formation can be monitored spectrophotometrically at 560 nm as the unreduced dye has minimal absorbance at this wavelength. A quantitative NBT reduction assay is ideal for this type of screen as it is simple, sensitive, quantitative, requires minimal cells, has been proven to have low well to well variability, and the amount of reduced NBT is proportional to the number of cells reducing the dye as well as the amount reduced by each cell.
To discover novel AML differentiation-inducing compounds a rapid high-throughput screen (HTS) was developed and optimized. The screen was designed to be biased to identify compounds that, unlike the majority of known differentiation-inducing agents, have both high potency and low toxicity. The screen measured the differentiation of HL-60 leukemic cells using a quantitative Nitroblue Tetrazolium (NBT) reduction assay, a test that is used extensively as a measure of functional myelomonocytic differentiation. The basis for the screen is unreduced NBT exists as a yellow soluble dye. Differentiated leukemic cells are capable of producing a respiratory burst that can reduce NBT into a blue insoluble compound that can be measured spectrophotometrically. This forward chemical genetics approach allowed the discovery of novel compounds that can act on targets not previously known to be “drugable.” As only live cells can reduce NBT, the screen is biased in identifying relatively nontoxic compounds.
To perform the screen, duplicate plates of HL-60 cells were cultured at a density of 5×10^4 cells/mL with 10 μM of each compound in 96 well plates for 5 days. To determine the relative capability for a compound to induce differentiation compared to known potent inducers, each plate destined for the NBT reduction assay included wells with 0.1% DMSO (vehicle control) and 1 μM ATRA. This approach eliminates any slight day to day variation in NBT reduction values and allows the discovery of compounds with similar or greater efficacy to ATRA. Differentiation was determined in the 96 well plates by incubating the cells with 1 mg/mL of NBT and 200 ng/mL of PMA as the stimulant for the respiratory burst for 35 minutes at 37° C. The reaction was then stopped with HCl and the formazan solubilized with DMSO. Finally, the reaction mixture was read spectrophotometrically at 560 nm in a plate reader.
The securinine and norsecurinine analogues were tested and evaluated on their abilities to affect differentiation and growth of HL-60 cells (Table 1).

MOLT3 = assay: Growth inhibition of MOLT3 cells; type: cell-based
Description: (§1) In certain embodiments, securinine and norsecurinine analogues were administered to cancerous cells, such as acute myeloblastic leukemia cells (e.g., MOLT3 and OCI-AML3) and growth inhibition was analyzed. The analogues were effective in inhibiting myeloid growth in addition to promoting differentiation, and provide for reduced proliferation of acute myeloblastic leukemia cells (Table 2).

OCI-AML3 = assay: Growth inhibition of OCI-AML3 cells; type: cell-based
Description: as §1

HL-60 cells = assay: Growth of HL-60 cells (IC50); type: cell-based, human; settings: value bracketed between tested concentrations, read-out: HL-60, IC50
[1] = Homo sapiens, HL-60 cells, value bracketed between tested concentrations, read-out: HL-60, Dif50
[2] = Homo sapiens, HL-60, read-out: HL-60, Dif50
[3] = Homo sapiens, MOLT-3, MOLT3 cells, read-out: MOLT3 IC50
[4] = Homo sapiens, OCI-AML-3, OCI-AML3 cells, read-out: OCI-AML3 IC50
[5] = HL-60 cells, value bracketed between tested concentrations, read-out: HL-60, Dif50
[6] = Homo sapiens, HL-60, HL-60 cells

O=C1C=C2CC(NC3CC3)[C@@H]3C[C@@]2(O1)[C@H]1CCCCN31 (stereo partly drawn) [Compound 80]
EC50 (HL-60 leukemic cells; [1]): 20 to 30 µM

O=C1C=C2CC(SCC3CCCCCC3)[C@@H]3C[C@@]2(O1)[C@H]1CCCCN31 (stereo partly drawn) [Compound 70]
EC50 (HL-60 leukemic cells; [2]): 10 to 15 µM

O=C1C=C2CC(SCc3cccs3)[C@@H]3C[C@@]2(O1)[C@H]1CCCCN31 (stereo partly drawn) [Compound 69]
EC50 (HL-60 leukemic cells; [1]): 20 to 30 µM

CC(C)(C)OC(=O)NCCSC1CC2=CC(=O)O[C@@]23C[C@@H]1N1CCCC[C@@H]13 (stereo partly drawn) [Compound 95]
EC50 (HL-60 leukemic cells; [1]): 15 to 20 µM

CCCN(CC#CC1=C[C@@H]2C[C@@]3(OC(=O)C=C13)[C@H]1CCCCN21)CCC [Compound 39]
IC50 (MOLT3; [3]): 80 nM | IC50 (OCI-AML3; [4]): 70 nM

COc1ccc2cc(C#CC3=C[C@@H]4C[C@@]5(OC(=O)C=C35)[C@H]3CCCCN43)ccc2c1 [Compound 40]
IC50 (MOLT3; [3]): 90 nM | IC50 (OCI-AML3; [4]): 105 nM

O=C1C=C2CC(n3cnc4ccccc43)[C@@H]3C[C@@]2(O1)[C@H]1CCCCN31 (stereo partly drawn) [Compound 91]
EC50 (HL-60 leukemic cells; [1]): > 30 µM

CO[C@H]1CC2=CC(=O)O[C@@]23C[C@@H]1N1CCCC[C@@H]13 [INVS-MG-97-IIB]
EC50 (HL-60 leukemic cells; [5]): > 30 µM

O=C1C=C2CC(SC3CCCC3)[C@@H]3C[C@@]2(O1)[C@H]1CCCCN31 (stereo partly drawn) [Compound 97]
EC50 (HL-60 leukemic cells; [2]): 15 to 20 µM

O=C1C=C2CC(NC3CCCC3)[C@@H]3C[C@@]2(O1)[C@H]1CCCCN31 (stereo partly drawn) [Compound 81]
EC50 (HL-60 leukemic cells; [1]): 10 to 15 µM

O=C1C=C2C(C#Cc3ccc(OC(F)(F)F)cc3)=C[C@@H]3C[C@@]2(O1)[C@H]1CCCCN31 [Compound 48]
IC50 (HL-60 cells; [6]): 0.31 to 0.625 µM | IC50 (MOLT3; [3]): > 300 nM | IC50 (OCI-AML3; [4]): > 300 nM

O=C1C=C2CC(n3nnc4ccccc43)[C@@H]3C[C@@]2(O1)[C@H]1CCCCN31 (stereo partly drawn) [Compound 92]
EC50 (HL-60 leukemic cells; [1]): 20 to 30 µM

O=C1C=C2CC(NCC3CC3)[C@@H]3C[C@@]2(O1)[C@H]1CCCCN31 (stereo partly drawn) [Compound 79]
EC50 (HL-60 leukemic cells; [1]): 10 to 15 µM

C=C(C)CC#CC1=C[C@@H]2C[C@@]3(OC(=O)C=C13)[C@H]1CCCCN21 [Compound 28]
IC50 (HL-60 cells; [6]): 0.156 to 0.31 µM | IC50 (MOLT3; [3]): 165 nM | IC50 (OCI-AML3; [4]): 200 nM

CCCCSC1CC2=CC(=O)O[C@@]23C[C@@H]1N1CCCC[C@@H]13 (stereo partly drawn) [Compound 72]
EC50 (HL-60 leukemic cells; [1]): 20 to 30 µM

O=C1C=C2CC(NC3CCCCC3)[C@@H]3C[C@@]2(O1)[C@H]1CCCCN31 (stereo partly drawn) [Compound 82]
EC50 (HL-60 leukemic cells; [1]): 15 to 20 µM

O=C1C=C2C(C#Cc3ccsc3)=C[C@@H]3C[C@@]2(O1)[C@H]1CCCCN31 [Compound 31]
IC50 (HL-60 cells; [6]): 0.156 to 0.31 µM | IC50 (MOLT3; [3]): 60 nM | IC50 (OCI-AML3; [4]): 75 nM

CC(C)NCCSC1CC2=CC(=O)O[C@@]23C[C@@H]1N1CCCC[C@@H]13 (stereo partly drawn) [Compound 100]
EC50 (HL-60 leukemic cells; [1]): 15 to 20 µM

COc1ccc(CN[C@@H]2CC3=CC(=O)O[C@@]34C[C@@H]2N2CCCC[C@@H]24)cc1 [INVS-MG-86C]
EC50 (HL-60 leukemic cells; [5]): > 30 µM

CCN(CC)CC#CC1=C[C@@H]2C[C@@]3(OC(=O)C=C13)[C@H]1CCCCN21 [Compound 35]
IC50 (MOLT3; [3]): 130 nM | IC50 (OCI-AML3; [4]): 110 nM

CC(C)SC1CC2=CC(=O)O[C@@]23C[C@@H]1N1CCCC[C@@H]13 (stereo partly drawn) [Compound 75]
EC50 (HL-60 leukemic cells; [1]): 15 to 20 µM

O=C1C=C2C[C@H](S(=O)(=O)c3ccccc3)[C@@H]3C[C@@]2(O1)[C@H]1CCCCN31 [Compound 88]
EC50 (HL-60 leukemic cells; [1]): 5 to 7.5 µM

O=C1C=C2C[C@H](SCC(F)(F)F)[C@@H]3C[C@@]2(O1)[C@H]1CCCCN31 [INVS-MG-5B]
EC50 (HL-60 leukemic cells; [5]): > 30 µM

O=C1C=C2CC(n3ccnc3)[C@@H]3C[C@@]2(O1)[C@H]1CCCCN31 (stereo partly drawn) [Compound 99]
EC50 (HL-60 leukemic cells; [1]): 15 to 20 µM

O=C1C=C2C(C#Cc3ccsc3)=C[C@@H]3C[C@@]2(O1)[C@H]1CCCCN31 [INVS-MG-136-III]
IC50 (HL-60 cells; HL-60 cells): < 0.07 µM | IC50 (MOLT3; MOLT3 cells, read-out: MOLT3 IC50): 100 nM | IC50 (OCI-AML3; OCI-AML3 cells, read-out: OCI-AML3 IC50): 115 nM

O=C1C=C2C(I)=C[C@@H]3C[C@@]2(O1)[C@H]1CCCCN31 [Compound 14]
EC50 (HL-60 leukemic cells; [2]): 0.5 to 0.75 µM

C[N+]12CCCC[C@@H]1[C@]13C[C@H]2C=CC1=CC(=O)O3 (stereo partly drawn) [Compound 8]
EC50 (HL-60 leukemic cells; [1]): > 30 µM

O=C1C=C2CC(SC34CC5CC(CC(C5)C3)C4)[C@@H]3C[C@@]2(O1)[C@H]1CCCCN31 (stereo partly drawn) [Compound 66]
EC50 (HL-60 leukemic cells; [1]): > 30 µM

CSC1CC2=CC(=O)O[C@@]23C[C@@H]1N1CCCC[C@@H]13 (stereo partly drawn) [Compound 96]
EC50 (HL-60 leukemic cells; [2]): 10 to 15 µM

O=C(CCCC[C@@H]1SC[C@@H]2NC(=O)N[C@@H]21)NCCS[C@H]1CC2=CC(=O)O[C@@]23C[C@@H]1N1CCCC[C@@H]13 [Compound 78]
EC50 (HL-60 leukemic cells; [1]): 10 to 15 µM

CCCCCCCSC1CC2=CC(=O)O[C@@]23C[C@@H]1N1CCCC[C@@H]13 (stereo partly drawn) [Compound 71]
EC50 (HL-60 leukemic cells; [2]): 20 to 30 µM

N#CCCCC#CC1=C[C@@H]2C[C@@]3(OC(=O)C=C13)[C@H]1CCCCN21 [Compound 26]
IC50 (MOLT3; [3]): 160 nM | IC50 (OCI-AML3; [4]): 195 nM

NCCSC1CC2=CC(=O)O[C@@]23C[C@@H]1N1CCCC[C@@H]13 (stereo partly drawn) [Compound 77]
EC50 (HL-60 leukemic cells; [1]): 10 to 15 µM

O=C1C=C2CC(SCc3ccccc3)[C@@H]3C[C@@]2(O1)[C@H]1CCCCN31 (stereo partly drawn) [Compound 93]
EC50 (HL-60 leukemic cells; [2]): > 30 µM

O=C1C=C2CC(NC3CCCCCCC3)[C@@H]3C[C@@]2(O1)[C@H]1CCCCN31 (stereo partly drawn) [Compound 84]
EC50 (HL-60 leukemic cells; [1]): > 30 µM

CCCSC1CC2=CC(=O)O[C@@]23C[C@@H]1N1CCCC[C@@H]13 (stereo partly drawn) [Compound 74]
EC50 (HL-60 leukemic cells; [1]): 15 to 20 µM

O=C1C=C2CC(NC3CC(O)C3)[C@@H]3C[C@@]2(O1)[C@H]1CCCCN31 (stereo partly drawn) [Compound 85]
EC50 (HL-60 leukemic cells; [1]): 10 to 15 µM

O=C1C=C2CC(SCc3ccccc3O)[C@@H]3C[C@@]2(O1)[C@H]1CCCCN31 (stereo partly drawn) [Compound 94]
EC50 (HL-60 leukemic cells; [2]): 15 to 20 µM

O=C1C=C2C(C#Cc3cc4ccccc4c4ccccc34)=C[C@@H]3C[C@@]2(O1)[C@H]1CCCCN31 [Compound 41]
IC50 (MOLT3; Homo sapiens, MOLT-3, read-out: MOLT3 IC50 (nM)): 150 nM | IC50 (OCI-AML3; Homo sapiens, OCI-AML-3, read-out: OCI-AML3 IC50 (nM)): 180 nM

COc1ccc(CN[C@H]2CC3=CC(=O)O[C@@]34C[C@@H]2N2CCCC[C@@H]24)cc1 [Compound 86]
EC50 (HL-60 leukemic cells; [1]): 15 to 20 µM

Nc1ccc(C#CC2=C[C@@H]3C[C@@]4(OC(=O)C=C24)[C@H]2CCCCN32)cc1 [Compound 53]
EC50 (HL-60 leukemic cells; [1]): 0.156 to 0.31 µM

O=C1C=C2CC(NC3CCCCCC3)[C@@H]3C[C@@]2(O1)[C@H]1CCCCN31 (stereo partly drawn) [Compound 83]
EC50 (HL-60 leukemic cells; [1]): > 30 µM

COC(OC)[C@H]1CC[C@H]2N1[C@@H]1C=CC3=CC(=O)O[C@@]32C1 [Compound 2]
EC50 (HL-60 leukemic cells; [2]): 3.25 to 5 µM

CCN(CC)CCSC1CC2=CC(=O)O[C@@]23C[C@@H]1N1CCCC[C@@H]13 (stereo partly drawn) [Compound 73]
EC50 (HL-60 leukemic cells; [1]): 10 to 15 µM

O=C1C=C2CC(N3CCC(F)(F)C3)[C@@H]3C[C@@]2(O1)[C@H]1CCCCN31 (stereo partly drawn) [Compound 68]
EC50 (HL-60 leukemic cells; [1]): > 30 µM

C[N+]12CCCC[C@@H]1[C@]13C[C@H]2C=CC1=CC(=O)O3 (stereo partly drawn) [Sec-1]
EC50 (HL-60 leukemic cells; [5]): > 30 µM

O=C1C=C2CC(SCC(F)(F)F)[C@@H]3C[C@@]2(O1)[C@H]1CCCCN31 (stereo partly drawn) [Compound 67]
EC50 (HL-60 leukemic cells; [1]): 20 to 30 µM
